Source: paper PMC13539321 (Journal of Advanced Research, 2025)

Target: Mushroom TYR (EC 1.14.18.1) (Agaricus bisporus, UniProt C7FF04)
Experiment: biochemical
Settings: IC50 value ± SD
[1] = L-dopa, substrate L-dopa (diphenolase), n = 3, screening of de novo generated compounds (Table 1)
[2] = L-tyrosine, substrate L-tyrosine (monophenolase), n = 3, screening of de novo generated compounds (Table 1)

Mushroom TYR (EC 1.14.18.1), sequence (C7FF04 1-392 limits assumed): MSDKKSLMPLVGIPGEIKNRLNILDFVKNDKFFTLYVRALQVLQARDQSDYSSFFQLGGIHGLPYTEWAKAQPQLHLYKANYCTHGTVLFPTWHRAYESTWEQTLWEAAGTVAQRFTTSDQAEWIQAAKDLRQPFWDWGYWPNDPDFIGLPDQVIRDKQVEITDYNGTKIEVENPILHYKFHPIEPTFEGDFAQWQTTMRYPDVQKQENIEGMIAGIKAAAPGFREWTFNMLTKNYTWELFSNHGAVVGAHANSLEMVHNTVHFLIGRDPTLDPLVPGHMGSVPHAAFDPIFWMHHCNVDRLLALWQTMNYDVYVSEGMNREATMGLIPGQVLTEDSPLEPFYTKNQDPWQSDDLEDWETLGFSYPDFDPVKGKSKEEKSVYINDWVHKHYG

SMILES | IC50 [1] | IC50 [2] | IC50 (L-dopa) | IC50 (L-tyrosine)
COc1cc(C(=O)N[C@@H](Cc2ccccc2)C(N)=O)ccc1O [Compound I, (S)-N-(1-amino-1-oxo-3-phenylpropan-2-yl)-4-hydroxy-3-methoxybenzamide] | > 800 µM | > 800 µM | – | –
O=C(CCc1cccc(O)c1)N1CCN(Cc2ccccc2F)CC1 [Compound V-1, 1-(4-(2-fluorobenzyl)piperazin-1-yl)-3-(3-hydroxyphenyl)propan-1-one] | – | – | > 800 µM | 204 ± 3.9 µM
O=C(CCc1cccc(O)c1)N1CCN(Cc2cccc(F)c2)CC1 [Compound V-2, 1-(4-(3-fluorobenzyl)piperazin-1-yl)-3-(3-hydroxyphenyl)propan-1-one] | – | – | > 400 µM | 295 ± 24.2 µM
O=C(CCc1ccccc1O)N1CCN(Cc2ccc(F)cc2)CC1 [Compound V-3, 1-(4-(4-fluorobenzyl)piperazin-1-yl)-3-(2-hydroxyphenyl)propan-1-one] | – | – | 66.1 ± 4.6 µM | 60.6 ± 4.5 µM
O=C(CCc1ccc(O)cc1)N1CCN(Cc2ccc(F)cc2)CC1 [Compound V-4, 1-(4-(4-fluorobenzyl)piperazin-1-yl)-3-(4-hydroxyphenyl)propan-1-one] | – | – | 26.1 ± 4.6 µM | 2.9 ± 0.1 µM
O=C(/C=C/c1cccc(O)c1)N1CCN(Cc2ccc(F)cc2)CC1 [Compound V-5, (E)-1-(4-(4-fluorobenzyl)piperazin-1-yl)-3-(3-hydroxyphenyl)prop-2-en-1-one] | – | – | > 200 µM | 148 ± 25.4 µM
O=C(CCc1cccc(O)c1)N1CCCN(Cc2ccc(F)cc2)CC1 [Compound V-6, 1-(4-(4-fluorobenzyl)-1,4-diazepan-1-yl)-3-(3-hydroxyphenyl)propan-1-one] | – | – | 296 ± 7.9 µM | 88.9 ± 2.9 µM
O=C(CCc1cccc(O)c1)N1CC2CN(Cc3ccc(F)cc3)CC2C1 (stereo not drawn) [Compound V-7, 1-(5-(4-fluorobenzyl)hexahydropyrrolo[3,4-c]pyrrol-2(1H)-yl)-3-(3-hydroxyphenyl)propan-1-one] | – | – | 119 ± 5.2 µM | 25.8 ± 1.1 µM
O=C(CCc1cccc(O)c1)NCCNCc1ccc(F)cc1 [Compound V-8, N-(2-((4-fluorobenzyl)amino)ethyl)-3-(3-hydroxyphenyl)propanamide] | – | – | > 800 µM | 298 ± 16.6 µM
O=C(CCc1cccc(O)c1)NCCCNCc1ccc(F)cc1 [Compound V-9, N-(3-((4-fluorobenzyl)amino)propyl)-3-(3-hydroxyphenyl)propanamide] | – | – | > 800 µM | 328 ± 4.9 µM
Cc1ccc(CN2CCN(C(=O)CCc3cccc(O)c3)CC2)cc1 [Compound V-11, 3-(3-hydroxyphenyl)-1-(4-(4-methylbenzyl)piperazin-1-yl)propan-1-one] | – | – | > 400 µM | 20.1 ± 0.7 µM
CCc1ccc(CN2CCN(C(=O)CCc3cccc(O)c3)CC2)cc1 [Compound V-12, 1-(4-(4-ethylbenzyl)piperazin-1-yl)-3-(3-hydroxyphenyl)propan-1-one] | – | – | > 800 µM | > 800 µM
COc1ccc(CN2CCN(C(=O)CCc3cccc(O)c3)CC2)cc1 [Compound V-13, 3-(3-hydroxyphenyl)-1-(4-(4-methoxybenzyl)piperazin-1-yl)propan-1-one] | – | – | 103 ± 5.6 µM | 132 ± 5.4 µM
N#Cc1ccc(CN2CCN(C(=O)CCc3cccc(O)c3)CC2)cc1 [Compound V-14, 4-((4-(3-(3-hydroxyphenyl)propanoyl)piperazin-1-yl)methyl)benzonitrile] | – | – | 72.6 ± 3.1 µM | 83.2 ± 3.2 µM
O=C(CCc1cccc(O)c1)N1CCN(C/C=C/c2ccc(F)cc2)CC1 [Compound V-15, (E)-1-(4-(3-(4-fluorophenyl)allyl)piperazin-1-yl)-3-(3-hydroxyphenyl)propan-1-one] | – | – | 140 ± 15.6 µM | 41.8 ± 3.2 µM
O=C(CCc1cccc(O)c1)N1CCN(CCc2ccccc2)CC1 [Compound V-16, 3-(3-hydroxyphenyl)-1-(4-phenethylpiperazin-1-yl)propan-1-one] | – | – | > 800 µM | > 300 µM
O=C(CCc1cccc(O)c1)N1CCN(Cc2ccco2)CC1 [Compound V-17, 1-(4-(furan-2-ylmethyl)piperazin-1-yl)-3-(3-hydroxyphenyl)propan-1-one] | – | – | > 800 µM | > 600 µM
O=C(CCc1cccc(O)c1)N1CCN(Cc2cccs2)CC1 [Compound V-18, 3-(3-hydroxyphenyl)-1-(4-(thiophen-2-ylmethyl)piperazin-1-yl)propan-1-one] | – | – | > 800 µM | > 300 µM
O=C(CCc1cccc(O)c1)N1CCN(Cc2ccccn2)CC1 [Compound V-19, 3-(3-hydroxyphenyl)-1-(4-(pyridin-2-ylmethyl)piperazin-1-yl)propan-1-one] | – | – | > 800 µM | > 600 µM
O=C(CCc1cc(O)cc(O)c1)N1CCN(Cc2ccc(F)cc2)CC1 [Compound V-20, 3-(3,5-dihydroxyphenyl)-1-(4-(4-fluorobenzyl)piperazin-1-yl)propan-1-one] | – | – | 21.3 ± 0.8 µM | 9.1 ± 0.6 µM
O=C(CCc1cc(O)ccc1O)N1CCN(Cc2ccc(F)cc2)CC1 [Compound V-21, 3-(2,5-dihydroxyphenyl)-1-(4-(4-fluorobenzyl)piperazin-1-yl)propan-1-one] | – | – | 21 ± 0.82 µM | 8.2 ± 0.4 µM
NC(=O)[C@H](Cc1ccccc1)NC(=O)CCc1cccc(O)c1 [II, (S)-N-(1-amino-1-oxo-3-phenylpropan-2-yl)-3-(3-hydroxyphenyl)propanamide] | > 800 µM | 423 ± 38.3 µM | – | –
NC(=O)[C@H](Cc1ccccc1)NC(=O)c1cccc(O)c1 [III, (S)-N-(1-amino-1-oxo-3-phenylpropan-2-yl)-3-hydroxybenzamide] | > 800 µM | > 800 µM | – | –
O=C(CCc1cccc(O)c1)NC1CCN(Cc2ccccc2)CC1 [IV, N-(1-benzylpiperidin-4-yl)-3-(3-hydroxyphenyl)propanamide] | > 800 µM | 198 ± 7.6 µM | – | –
O=C(O)c1ccc(CN2CCC(C(=O)c3ccccc3)CC2)cc1 [IX, 4-((4-benzoylpiperidin-1-yl)methyl)benzoic acid] | > 800 µM | > 800 µM | – | –
O=C(NCc1ccc(F)cc1)c1cc(O)nc2ccccc12 [VI, N-(4-fluorobenzyl)-2-hydroxyquinoline-4-carboxamide] | > 800 µM | > 800 µM | – | –
COc1cccc(/C=C/C(=O)Nc2n[nH]c3ccccc23)c1 [VII, (E)-N-(1H-indazol-3-yl)-3-(3-methoxyphenyl)acrylamide] | > 800 µM | > 800 µM | – | –
O=C(NCCc1cccc(O)c1)c1cccc2ncccc12 [VIII, N-(3-hydroxyphenethyl)quinoline-5-carboxamide] | > 800 µM | > 800 µM | – | –
Cc1ccccc1CNC(=O)CCc1cccc(O)c1 [X, 3-(3-hydroxyphenyl)-N-(2-methylbenzyl)propanamide] | 462 ± 50.4 µM | 60.9 ± 1.9 µM | – | –

Further compounds by falling IC50 (L-dopa), results first:

IC50 [1] | IC50 [2] | IC50 (L-dopa) | IC50 (L-tyrosine) | SMILES
– | – | 19 ± 2.2 µM | 7.4 ± 0.4 µM | O=C(CCc1cccc(O)c1)N1CCN(Cc2cccc(Cl)c2)CC1 [Compound V-10, 1-(4-(3-chlorobenzyl)piperazin-1-yl)-3-(3-hydroxyphenyl)propan-1-one]
– | – | 0.596 ± 0.026 µM | 0.497 ± 0.07 µM | CCOc1ccc(CN2CCN(C(=O)CCc3ccc(O)cc3O)CC2)cc1 [Compound V-27, 3-(2,4-dihydroxyphenyl)-1-(4-(4-ethoxybenzyl)piperazin-1-yl)propan-1-one]
– | – | 0.237 ± 0.011 µM | 0.299 ± 0.007 µM | N#Cc1ccc(CN2CCN(C(=O)CCc3ccc(O)cc3O)CC2)cc1 [Compound V-33, 4-((4-(3-(2,4-dihydroxyphenyl)propanoyl)piperazin-1-yl)methyl)benzonitrile]
– | – | 0.189 ± 0.005 µM | 0.216 ± 0.019 µM | O=C(CCc1ccc(O)cc1O)N1CCN(Cc2cccc(Cl)c2)CC1 [Compound V-29, 1-(4-(3-chlorobenzyl)piperazin-1-yl)-3-(2,4-dihydroxyphenyl)propan-1-one]
– | – | 0.153 ± 0.011 µM | 0.187 ± 0.003 µM | O=C(CCc1ccc(O)cc1O)N1CCN(Cc2ccc(Cl)cc2)CC1 [Compound V-31, 1-(4-(4-chlorobenzyl)piperazin-1-yl)-3-(2,4-dihydroxyphenyl)propan-1-one]
– | – | 0.147 ± 0.013 µM | 0.165 ± 0.008 µM | COc1ccc(CN2CCN(C(=O)CCc3ccc(O)cc3O)CC2)cc1 [Compound V-25, 3-(2,4-dihydroxyphenyl)-1-(4-(4-methoxybenzyl)piperazin-1-yl)propan-1-one]
– | – | 0.134 ± 0.008 µM | 0.183 ± 0.013 µM | Cc1ccc(CN2CCN(C(=O)CCc3ccc(O)cc3O)CC2)cc1 [Compound V-23, 3-(2,4-dihydroxyphenyl)-1-(4-(4-methylbenzyl)piperazin-1-yl)propan-1-one]
– | – | 0.085 ± 0.016 µM | 0.122 ± 0.008 µM | O=C(/C=C/c1ccc(O)cc1O)N1CCN(Cc2ccc(F)cc2)CC1 [Compound V-22, (E)-3-(2,4-dihydroxyphenyl)-1-(4-(4-fluorobenzyl)piperazin-1-yl)prop-2-en-1-one]
– | – | 0.032 ± 0.004 µM | 0.041 ± 0.005 µM | N#Cc1ccc(CN2CCN(C(=O)/C=C/c3ccc(O)cc3O)CC2)cc1 [Compound V-34, (E)-4-((4-(3-(2,4-dihydroxyphenyl)acryloyl)piperazin-1-yl)methyl)benzonitrile]
– | – | 0.022 ± 0.001 µM | 0.021 ± 0.0003 µM | O=C(/C=C/c1ccc(O)cc1O)N1CCN(Cc2cccc(Cl)c2)CC1 [Compound V-30, (E)-1-(4-(3-chlorobenzyl)piperazin-1-yl)-3-(2,4-dihydroxyphenyl)prop-2-en-1-one]
– | – | 0.021 ± 0.002 µM | 0.024 ± 0.002 µM | O=C(/C=C/c1ccc(O)cc1O)N1CCN(Cc2ccc(Cl)cc2)CC1 [Compound V-32, (E)-1-(4-(4-chlorobenzyl)piperazin-1-yl)-3-(2,4-dihydroxyphenyl)prop-2-en-1-one]
– | – | 0.02 ± 0.002 µM | 0.023 ± 0.002 µM | COc1ccc(CN2CCN(C(=O)/C=C/c3ccc(O)cc3O)CC2)cc1 [Compound V-26, (E)-3-(2,4-dihydroxyphenyl)-1-(4-(4-methoxybenzyl)piperazin-1-yl)prop-2-en-1-one]
– | – | 0.019 ± 0.0002 µM | 0.021 ± 0.001 µM | CCOc1ccc(CN2CCN(C(=O)/C=C/c3ccc(O)cc3O)CC2)cc1 [Compound V-28, (E)-3-(2,4-dihydroxyphenyl)-1-(4-(4-ethoxybenzyl)piperazin-1-yl)prop-2-en-1-one]
